Data from patent publication US20240254089A1, “MODULATORS OF MAS-RELATED G-PROTEIN RECEPTOR X4 AND RELATED PRODUCTS AND METHODS” (ESCIENT PHARMACEUTICALS, INC., priority 2020, published 2024).

target: T1, human MRGPR X4 (Homo sapiens, UniProt Q96LA9); assay: MRGPR X4 antagonist activity, IP-One Gq HTRF assay in stably transfected HEK cells; assay type: cell-based; details: not given
T1 construct: expressed in transfected cells
Outline: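 IC50 comes from HTRF IP-1 accumulation in stably transfected HEK cells expressing human MRGPR X4. Compounds (10 uM top, 1:3 serial, 10 points) were co-incubated with 10 μM bilirubin, 20 μM deoxycholic acid or 100 μM conjugated bilirubin in LiCl-containing buffer, pH 8, for 1 h at 37 °C plus 30 min at room temperature.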

T1 sequence (Q96LA9 whole entry): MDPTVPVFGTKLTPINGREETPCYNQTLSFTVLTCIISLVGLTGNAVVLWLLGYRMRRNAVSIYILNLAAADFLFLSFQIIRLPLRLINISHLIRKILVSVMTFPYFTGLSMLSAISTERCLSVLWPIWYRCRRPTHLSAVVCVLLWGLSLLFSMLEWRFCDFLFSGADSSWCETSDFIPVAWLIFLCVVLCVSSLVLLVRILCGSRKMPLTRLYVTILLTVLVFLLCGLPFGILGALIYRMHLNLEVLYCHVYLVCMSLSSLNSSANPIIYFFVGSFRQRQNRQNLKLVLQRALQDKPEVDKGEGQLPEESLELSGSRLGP

Row | SMILES | IC50 [nM]
1 | COc1ccc(Cn2nc(C(=O)NCCc3nnc4ccccn34)c3ccccc32)nc1 [Compound 448] | > 2500
2 | N#Cc1ccc(Cn2cc(C(=O)NCCc3cccnc3)c3ccccc32)cc1 [Compound 193] | 501 to 1000
3 | O=C(NCCc1cccc(F)c1)c1cn(Cc2ccc(Cl)cc2)c2ccccc12 [Compound 162] | 100 to 500
4 | COc1ccc(Cn2nc(C(=O)NCCc3nnc4ccccn34)c3ccccc32)c2ccccc12 [Compound 473] | 100 to 500
5 | O=C(NCCc1ccncc1)c1cn(Cc2ccc(Cl)cc2)c2ccccc12 [Compound 163] | 100 to 500
6 | COc1ccccc1Cn1nc(C(=O)NCCc2nnc3ccccn23)c2ccccc21 [Compound 430] | > 2500
7 | O=C(NCCc1cccnc1)c1nn(Cc2ccccc2Cl)c2ccccc12 [Compound 89] | 501 to 1000
8 | O=C(NCCc1nnc2ccccn12)c1nn(Cc2nc3ccccc3[nH]c2=O)c2ccccc12 [Compound 516] | > 2500
9 | O=C(NCCc1cncc(F)c1)c1cn(Cc2ccc(Cl)cc2)c2ccccc12 [Compound 154] | < 100
10 | O=C(NCCc1nnc2ccccn12)c1nn(Cc2nccc3ccccc23)c2ccccc12 [Compound 454] | 1000 to 2500
11 | O=C(NCc1ccc2ccccc2n1)c1nn(Cc2ccc(Cl)cc2)c2ccccc12 [Compound 423] | > 2500
12 | COc1cccc(Cn2cc(C(=O)NCCc3cccnc3)c3ccccc32)c1 [Compound 211] | 1000 to 2500
13 | O=C(NCCc1nnc2ccccn12)c1nn(Cc2nc3ccccc3o2)c2ccccc12 [Compound 438] | 100 to 500
14 | O=C(NCCc1cccnc1)c1nn(Cc2ccc(Cl)cc2)c2ccccc12 [Compound 19] | < 100
15 | O=C(NCCc1cccc(C(F)(F)F)n1)c1nn(Cc2ccc(Cl)cc2)c2ccccc12 [Compound 117] | 1000 to 2500
16 | Cc1ccc(Cn2cc(C(=O)NCCc3nc4c(s3)CCCC4)c3ccccc32)cc1 [Compound 165] | 100 to 500
17 | O=C(NCCc1cn2c(n1)SCC2)c1nn(Cc2ccc(Cl)cc2)c2ccccc12 [Compound 33] | 100 to 500
18 | CC(Cc1ccccn1)NC(=O)c1nn(Cc2ccc(Cl)cc2)c2ccccc12 (stereo not drawn) [Compound 127] | > 2500
19 | O=C(CNC(=O)c1nn(Cc2ccc(Cl)cc2)c2ccccc12)c1ccc(O)cc1 [Compound 382] | 501 to 1000
20 | Cc1cccc(S(=O)(=O)NC(=O)c2nn(Cc3ccc(OC(F)F)cc3)c3ccccc23)c1 [Compound 270] | 1000 to 2500
21 | Cc1nc(Cn2nc(C(=O)NCCc3nnc4ccccn34)c3ccccc32)nc2ccccc12 [Compound 431] | 1000 to 2500
22 | Cc1ccc2c(c1)c(C(=O)NCCc1nnc3ccccn13)nn2Cc1ccc(Cl)cc1 [Compound 530, N-(2-([1,2,4]triazolo[4,3-a]pyridin-3-yl)ethyl)-1-(4-chlorobenzyl)-5-methyl-1H-indazole-3-carboxamide] | < 100
23 | O=C(NCCc1cccnc1)c1nn(Cc2ccc(F)cc2)c2ccccc12 [Compound 57] | 100 to 500
24 | O=C(O)c1nn(Cc2ccc(C(F)(F)F)cc2Cl)c2ccccc12 [Compound 317] | 501 to 1000

Row | SMILES | IC50 [nM]
25 | O=C(NCCc1ccccn1)c1cn(Cc2cccc(F)c2)c2ccccc12 [Compound 214] | 1000 to 2500
26 | CNC(=O)c1cccc(CNC(=O)c2nn(Cc3ccc(Cl)cc3)c3ccccc23)c1 [Compound 399] | > 2500
27 | Cc1ncccc1CCNC(=O)c1cn(Cc2ccc(Cl)cc2)c2ccccc12 [Compound 152, 1-(4-chlorobenzyl)-N-(2-(2-methylpyridin-3-yl)ethyl)-1H-indole-3-carboxamide] | < 100
28 | O=C(NCCc1nnc2n1CCCCC2)c1nn(Cc2ccc(-c3ccccc3)cc2)c2ccccc12 [Compound 106] | 1000 to 2500
29 | O=C(NCCc1nnc2ccccn12)c1nn(Cc2ccc3sccc3c2)c2ccccc12 [Compound 495] | < 100
30 | O=C(NCCc1nnc2ccccn12)c1nn(Cc2csc(-c3ccccc3)n2)c2ccccc12 [Compound 512] | 100 to 500
31 | O=C(NCCc1nnc2ccccn12)c1nn(Cc2ccc(C(F)(F)F)cc2)c2ccccc12 [Compound 14] | < 100
32 | O=C(NCc1cccc2[nH]ncc12)c1nn(Cc2ccc(Cl)cc2)c2ccccc12 [Compound 387] | > 2500
33 | O=C(NCCc1nc2ccccc2s1)c1nn(Cc2ccc(Cl)cc2)c2ccccc12 [Compound 46] | 100 to 500
34 | Cc1ccc(CCNC(=O)c2nn(Cc3ccc(OC(F)F)cc3)c3ccccc23)cc1 [Compound 120] | 1000 to 2500
35 | O=C(NCCc1nnc2ccccn12)c1nn(Cc2nnc(-c3ccccc3)o2)c2ccccc12 [Compound 414] | 100 to 500
36 | COc1ccc(Cn2nc(C(=O)NCCc3cccnc3)c3ccccc32)cc1 [Compound 66] | 100 to 500
37 | O=C(NCCc1nnc2ccccn12)c1nn(Cc2ccc(OC(F)F)cc2)c2ccccc12 [Compound 463] | < 100
38 | O=C(O)c1nn(Cc2ccc(C3CCCCC3)cc2)c2ccccc12 [Compound 332] | > 2500
39 | Cc1ccc(Cn2nc(C(=O)NCCc3ncnn3C)c3ccccc32)cc1 [Compound 113] | 1000 to 2500
40 | Cc1ccc(Cn2nc(C(=O)NCCc3nc4c(s3)CCCC4)c3c(C#N)cccc32)cc1 [Compound 60] | 100 to 500
41 | O=C(NCCc1cccnc1)c1cn(Cc2cccc(OC(F)(F)F)c2)c2ccccc12 [Compound 186] | 501 to 1000
42 | Cc1cc(Cl)ccc1Cn1nc(C(=O)NCCc2nnc3n2CCCCC3)c2ccccc21 [Compound 11] | < 100
43 | O=C(NCCc1nc2c(s1)CCCC2)c1nn(Cc2ccc(Cl)cc2F)c2ccccc12 [Compound 131] | 100 to 500
44 | Cc1ncccc1CCNC(=O)c1nn(Cc2ccc(C(F)(F)F)cc2)c2ccccc12 [Compound 39] | 100 to 500
45 | Cc1ccc(Cn2cc(C(=O)NCCc3ccc(Cl)c(F)c3)c3ccccc32)cc1 [Compound 196] | 501 to 1000
46 | O=C(NCCCc1ccc(Cl)c(F)c1)c1cn(Cc2ccc(Cl)cc2)c2ccccc12 [Compound 204] | 1000 to 2500
47 | O=C(NCCc1cccs1)c1nn(Cc2ccc(Cl)cc2)c2ccccc12 [Compound 350] | 1000 to 2500

same assay, conditions: versus 20 μM deoxycholic acid agonist; HEK cells expressing human MRGPR X4; read-out: MRGPRX4 Antagonist Activity

Row | SMILES | IC50 [nM]
48 | Cc1cc(S(=O)(=O)NC(=O)c2nn(Cc3ccc(C(F)(F)F)cc3Cl)c3ccccc23)ccc1C#N [Compound 263] | 501 to 1000
49 | Cc1cccc(S(=O)(=O)NC(=O)c2nn(Cc3ccc(C#N)cc3)c3ccccc23)c1 [Compound 273] | 1000 to 2500
50 | O=C(NS(=O)(=O)c1ccccc1F)c1nn(Cc2ccc(OC(F)F)cc2)c2ccccc12 [Compound 269] | 1000 to 2500
51 | O=C(NS(=O)(=O)c1ccc(OC(F)(F)F)cc1)c1nn(Cc2ccc(OC(F)F)cc2)c2ccccc12 [Compound 296] | > 2500
52 | O=C(NS(=O)(=O)c1ccccc1C(F)(F)F)c1nn(Cc2ccc(OC(F)F)cc2)c2ccccc12 [Compound 262] | 501 to 1000
53 | Cc1ccc(Cn2nc(C(=O)NS(=O)(=O)c3cccc(C)c3)c3ccccc32)cc1 [Compound 297] | > 2500
54 | Cc1ccccc1NC(=O)CS(=O)(=O)c1cn(Cc2ccc(Cl)cc2)c2ccccc12 [Compound 255] | > 2500
55 | COc1cccc(S(=O)(=O)NC(=O)c2nn(Cc3ccc(OC(F)F)cc3)c3ccccc23)c1 [Compound 285] | 1000 to 2500
56 | Cc1cccc(S(=O)(=O)NC(=O)c2nn(Cc3ccc(OC(F)F)cc3)c3ccccc23)c1C [Compound 282] | 1000 to 2500
57 | COc1ccccc1CCCn1nc(C(=O)NCCc2nnc3ccccn23)c2ccccc21 [Compound 506] | > 2500
